The text below walks through data of US12421240B2, “Hydropyrazino[1,2-d][1,4]diazepine compounds for the treatment of autoimmune disease” (Hoffmann-La Roche Inc., priority 2019, dated 2025).

The test addresses T1, human TLR8 (Homo sapiens, UniProt Q9NR97).
T1 sequence (Q9NR97 27-1041): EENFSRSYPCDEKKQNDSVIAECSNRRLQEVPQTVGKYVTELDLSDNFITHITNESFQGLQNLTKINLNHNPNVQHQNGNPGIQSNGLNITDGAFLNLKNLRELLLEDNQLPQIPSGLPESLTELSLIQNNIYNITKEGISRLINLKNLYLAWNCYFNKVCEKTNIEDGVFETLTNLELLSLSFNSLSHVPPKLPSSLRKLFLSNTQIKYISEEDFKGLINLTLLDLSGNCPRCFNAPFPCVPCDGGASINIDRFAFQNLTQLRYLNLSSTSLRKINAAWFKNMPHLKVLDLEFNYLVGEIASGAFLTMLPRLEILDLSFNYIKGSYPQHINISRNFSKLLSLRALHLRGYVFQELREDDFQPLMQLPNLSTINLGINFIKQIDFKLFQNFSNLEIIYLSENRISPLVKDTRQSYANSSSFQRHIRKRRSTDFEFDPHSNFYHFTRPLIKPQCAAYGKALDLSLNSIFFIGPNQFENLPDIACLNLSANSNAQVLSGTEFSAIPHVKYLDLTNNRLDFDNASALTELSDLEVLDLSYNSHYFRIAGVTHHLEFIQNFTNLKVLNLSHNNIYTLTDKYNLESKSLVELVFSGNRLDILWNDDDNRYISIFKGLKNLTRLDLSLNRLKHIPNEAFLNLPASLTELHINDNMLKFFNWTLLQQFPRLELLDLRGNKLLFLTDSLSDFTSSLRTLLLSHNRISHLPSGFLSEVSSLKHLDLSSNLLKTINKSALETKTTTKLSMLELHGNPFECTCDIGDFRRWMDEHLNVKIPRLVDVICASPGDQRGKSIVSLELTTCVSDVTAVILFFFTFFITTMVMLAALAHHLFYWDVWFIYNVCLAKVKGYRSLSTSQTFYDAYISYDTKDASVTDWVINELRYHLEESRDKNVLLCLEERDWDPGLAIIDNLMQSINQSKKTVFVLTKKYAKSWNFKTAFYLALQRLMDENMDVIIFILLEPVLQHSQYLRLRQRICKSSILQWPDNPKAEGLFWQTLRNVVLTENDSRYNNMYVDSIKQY
Briefly: HEK293-Blue-hTLR-8 cells assay (SEAP reporter, R848 stimulation). Type of test: cell-based. As to conditions: HEK293-Blue-hTLR8 cells, R848 ligand, 20 hrs; read-out: HEK/hTLR8 IC50. How it is done:
The following tests were carried out in order to determine the activity of the compounds of formula (I), (Ia) or (Ib) in HEK293-Blue-hTLR-7/8/9 cells assay.
HEK293-Blue-hTLR-8 Cells Assay:
A stable HEK293-Blue-hTLR-8 cell line was purchased from InvivoGen (Cat. #: hkb-htlr8, San Diego, California, USA). These cells were originally designed for studying the stimulation of human TLR8 by monitoring the activation of NF-κB. A SEAP (secreted embryonic alkaline phosphatase) reporter gene was placed under the control of the IFN-β minimal promoter fused to five NF-κB and AP-1-binding sites. The SEAP was induced by activating NF-κB and AP-1 via stimulating HEK-Blue hTLR8 cells with TLR8 ligands. Therefore the reporter expression was declined by TLR8 antagonist under the stimulation of a ligand, such as R848, for incubation of 20 hrs. The cell culture supernatant SEAP reporter activity was determined using QUANTI-Blue™ kit (Cat. #: rep-qb1, Invivogen, San Diego, Ca., USA) at a wavelength of 640 nm, a detection medium that turns purple or blue in the presence of alkaline phosphatase.
HEK293-Blue-hTLR8 cells were incubated at a density of 250,000˜450,000 cells/mL in a volume of 170 μL in a 96-well plate in Dulbecco's Modified Eagle's medium (DMEM) containing 4.5 g/L glucose, 50 U/mL penicillin, […], […], 2 mM L-glutamine, 10% (v/v) heat-inactivated fetal bovine serum with addition of 20 μL test compound in a serial dilution in the presence of final DMSO at 1% and 10 μL of 60 uM R848 in above DMEM, perform incubation under 37° C. in a CO2 incubator for 20 hrs. Then 20 μL of the supernatant from each well was incubated with 180 μL Quanti-blue substrate solution at 37° C. for 2 hrs and the absorbance was read at 620-655 nm using a spectrophotometer. The signaling pathway that TLR8 activation leads to downstream NF-κB activation has been widely accepted, and therefore similar reporter assay was modified for evaluating TLR8 antagonist.
`C[C@@H]1CN(c2ccc(C#N)c3ncccc23)C[C@@H]2CCN(Cc3ccc(N4CCNCC4)cn3)CCN21` [Example 19, 5-[(4R,10aS)-4-methyl-8-[(5-piperazin-1-yl-2-pyridyl)methyl]-1,3,4,6,7,9,10,10a-octahydropyrazino[1,2-d][1,4]diazepin-2-yl]quinoline-8-carbonitrile]: the IC50 was 10.2 nM. Consider `C[C@@H]1CN(c2ccc(C#N)c3ncccc23)C[C@@H]2CCN(Cc3ccc(N4C[C@@H](N)[C@@H](F)C4)cn3)CCN21` [Example 20, 5-[(4R,10aS)-8-[[5-[(3R,4S)-3-amino-4-fluoro-pyrrolidin-1-yl]-2-pyridyl]methyl]-4-methyl-1,3,4,6,7,9,10,10a-octahydropyrazino[1,2-d][1,4]diazepin-2-yl]quinoline-8-carbonitrile], for which the IC50 is 11 nM.

With `C[C@@H]1CN(c2ccc(C#N)c3ncccc23)C[C@@H]2CCN(Cc3ccc(N4CCOC[C@H](N)C4)cn3)CCN21` [Example 21, 5-[(4R,10aS)-8-[[5-[(6R)-6-amino-1,4-oxazepan-4-yl]-2-pyridyl]methyl]-4-methyl-1,3,4,6,7,9,10,10a-octahydropyrazino[1,2-d][1,4]diazepin-2-yl]quinoline-8-carbonitrile], the IC50 is 86.9 nM. On to `CO[C@@H]1CN(c2ccc(CN3CC[C@H]4CN(c5ccc(C#N)c6ncccc56)C[C@@H](C)N4CC3)nc2)C[C@H]1N` [Example 22, 5-[(4R,10aS)-8-[[5-[(3R,4R)-3-amino-4-methoxy-pyrrolidin-1-yl]-2-pyridyl]methyl]-4-methyl-1,3,4,6,7,9,10,10a-octahydropyrazino[1,2-d][1,4]diazepin-2-yl]quinoline-8-carbonitrile], for which the IC50 was 14.1 nM.

As for `C[C@@H]1CN(c2ccc(C#N)c3ncccc23)C[C@@H]2CCN(Cc3ncc(N4CCNCC4)cc3F)CCN21` [Example 23, 5-[(4R,10aS)-8-[(3-fluoro-5-piperazin-1-yl-2-pyridyl)methyl]-4-methyl-1,3,4,6,7,9,10,10a-octahydropyrazino[1,2-d][1,4]diazepin-2-yl]quinoline-8-carbonitrile], the IC50 was 8.3 nM. For the compound `CO[C@@H]1CN(c2cnc(CN3CC[C@H]4CN(c5ccc(C#N)c6ncccc56)C[C@@H](C)N4CC3)c(F)c2)C[C@H]1N` [Example 24, 5-[(4R,10aS)-8-[[5-[(3R,4R)-3-amino-4-methoxy-pyrrolidin-1-yl]-3-fluoro-2-pyridyl]methyl]-4-methyl-1,3,4,6,7,9,10,10a-octahydropyrazino[1,2-d][1,4]diazepin-2-yl]quinoline-8-carbonitrile], the IC50 was 7.9 nM. Regarding `CO[C@@H]1CN(c2cnc(CN3CC[C@H]4CN(c5ccc(C#N)n6nccc56)C[C@@H](C)N4CC3)c(F)c2)C[C@H]1N` [Example 26, 4-[(4R,10aS)-8-[[5-[(3R,4R)-3-amino-4-methoxy-pyrrolidin-1-yl]-3-fluoro-2-pyridyl]methyl]-4-methyl-1,3,4,6,7,9,10,10a-octahydropyrazino[1,2-d][1,4]diazepin-2-yl]pyrazolo[1,5-a]pyridine-7-carbonitrile], the IC50 is 85.7 nM.

As to `CO[C@@H]1CN(c2cnc(CN3CC[C@H]4CN(c5ccc(C#N)n6ncc(F)c56)C[C@@H](C)N4CC3)c(F)c2)C[C@H]1N` [Example 27, 4-[(4R,10aS)-8-[[5-[(3R,4R)-3-amino-4-methoxy-pyrrolidin-1-yl]-3-fluoro-2-pyridyl]methyl]-4-methyl-1,3,4,6,7,9,10,10a-octahydropyrazino[1,2-d][1,4]diazepin-2-yl]-3-fluoro-pyrazolo[1,5-a]pyridine-7-carbonitrile], the IC50 was 10.1 nM. Turning to `C[C@@H]1CN(c2cc(=O)n(C)c3ncccc23)C[C@@H]2CCN(Cc3ccc4c(c3)CNCC4)CCN21` [Example 28, 4-[(4R,10aS)-4-methyl-8-(1,2,3,4-tetrahydroisoquinolin-7-ylmethyl)-1,3,4,6,7,9,10,10a-octahydropyrazino[1,2-d][1,4]diazepin-2-yl]-1-methyl-1,8-naphthyridin-2-one], the IC50 was found to be 51.1 nM.
